Values after ≈ are worked out from the molar mass of the structure shown. Where two headings read alike, the source gives them in different places. Where only a bound is given, the exact number is not on record here.

What all share (type): cell-based
Experiment [1] has as its system Burkholderia thailandensis Brett et al ATCC: 700388. The experiment is described as follows: microbe, parasite or virus in culture.
A further experiment concerns Candida glabrata. The experiment is described as follows: Candida glabrata MIC / MFC. The following applies: Nakaseomyces glabratus, Candida glabrata #584 (Table 2); for MIC: read-out: MIC; for MFC: minimum fungicidal concentration, read-out: MFC.
The subject of a further experiment is Bacillus thuringiensis. The conditions noted are these: Bacillus thuringiensis Berliner ATCC: 10792; for MIC: Bacillus thuringiensis, read-out: MIC.
The test system of another experiment is Bacillus subtilis. Put plainly: Bacillus subtilis MIC / MBC. The following applies: for MBC: Bacillus subtilis NRRL: B-571, minimum bactericidal concentration; for MIC: Bacillus subtilis (Ehrenberg 1835) Cohn 1872 NRRL: B-571, read-out: MIC.
The test system of experiment [2] is Francisella tularensis subsp. Holarctica Strain LVSR NR-597. Put plainly: microbe, parasite or virus in culture.
The subject of experiment [3] is Francisella tularensis strains. The experiment is described as follows: microbe, parasite or virus in culture.

For `Cc1[nH]c2ccccc2c1Sc1ccc(Br)cc1` [Compound 172C, 3-((4-bromophenyl)thio)-2-methyl-1H-indole], the MIC in experiment [1] was greater than 50 µg/mL.

For `Cc1[nH]c2ccc(O)cc2c1Sc1ccccc1N` [Compound 174AK, 3-((2-aminophenyl)thio)-2-methyl-1H-indol-5-ol], the MIC with Candida glabrata was greater than 50 µg/mL; in experiment [1], greater than 50 µg/mL; in the experiment with Bacillus thuringiensis, greater than 50 µg/mL; in the experiment on Bacillus subtilis (Bacillus subtilis), 50 µg/mL (≈ 185 µM). Further, the minimum bactericidal concentration (MBC) (as a rule, the smallest concentration meeting the test's criterion for killing) against Bacillus subtilis is greater than 50 µg/mL.

For the compound `Cc1[nH]c2ccc(O)cc2c1Sc1ccccc1O` [Compound 174AO, 3-((2-hydroxyphenyl)thio)-2-methyl-1H-indol-5-ol], the MIC was 50 µg/mL (≈ 184 µM) in experiment [2], greater than 50 µg/mL in the experiment with Candida glabrata and 50 µg/mL (≈ 184 µM) in the experiment on Bacillus subtilis (Bacillus subtilis).

With `Brc1ccc(Sc2c[nH]c3c(Br)cc(Br)cc23)cc1` [Compound 174AC, 5,7-dibromo-3-((4-bromophenyl)thio)-1H-indole], the MIC in the experiment with Candida glabrata was 25 µg/mL (≈ 54.1 µM); in experiment [1], greater than 50 µg/mL; in the experiment on Bacillus thuringiensis it was 8 µg/mL (≈ 17.3 µM); in the experiment with Bacillus subtilis (Bacillus subtilis) it was 8 µg/mL (≈ 17.3 µM). In addition, the MBC against Bacillus thuringiensis was found to be 50 µg/mL (≈ 108 µM); in the experiment on Bacillus subtilis, 16 µg/mL (≈ 34.6 µM).

For the compound `COc1ccc2[nH]cc(Sc3ccccc3O)c2c1` [Compound 174AQ, 2-((5-methoxy-1H-indol-3-yl)thio)phenol], the MIC in experiment [2] is 16 µg/mL (≈ 59 µM); in the experiment on Candida glabrata, 50 µg/mL (≈ 184 µM); in the experiment with Bacillus subtilis (Bacillus subtilis), 32 µg/mL (≈ 118 µM).

Take `Cc1ccccc1Sc1c[nH]c2ccc(Br)cc12` [Compound 174AY, 5-bromo-3-(o-tolylthio)-1H-indole]: the MIC stood at 1 µg/mL (≈ 3.14 µM) in experiment [2]; 4 µg/mL (≈ 12.6 µM) in experiment [3] (read-out: F. tularensis BSL-3 MIC, Strain 100); 2 µg/mL (≈ 6.28 µM) in experiment [3] (read-out: F. tularensis BSL-3 MIC, strain HN-63); 4 µg/mL (≈ 12.6 µM) in experiment [3] (read-out: F. tularensis BSL-3 MIC, strain LVS); 3.67 µg/mL (≈ 11.5 µM) in experiment [3] (read-out: F. tularensis BSL-3 MIC, strain MA00-2987); 2 µg/mL (≈ 6.28 µM) in experiment [3] (read-out: F. tularensis BSL-3 MIC, strain MO #1). Moreover, the MIC in experiment [3] (read-out: F. tularensis BSL-3 MIC, strain MO #2) came to 3.33 µg/mL (≈ 10.5 µM); in experiment [3] (read-out: F. tularensis BSL-3 MIC, strain MO #3), 3.67 µg/mL (≈ 11.5 µM); in experiment [3] (read-out: F. tularensis BSL-3 MIC, strain OR-96), 4 µg/mL (≈ 12.6 µM); in experiment [3] (read-out: F. tularensis BSL-3 MIC, strain SCHU S4) it was 4 µg/mL (≈ 12.6 µM); in experiment [3] (read-out: F. tularensis BSL-3 MIC, strain WY-96) it was 4 µg/mL (≈ 12.6 µM); in experiment [3] (read-out: MAX, highest MIC over the Francisella tularensis strains), 4 µg/mL (≈ 12.6 µM). The MIC in experiment [3] (read-out: MIN, lowest MIC over the Francisella tularensis strains) amounted to 2 µg/mL (≈ 6.28 µM); in the experiment with Bacillus thuringiensis it was 2 µg/mL (≈ 6.28 µM); with Bacillus subtilis (Bacillus subtilis) it was 1 µg/mL (≈ 3.14 µM). In addition, the MIC50 in experiment [3] came to 3.83 µg/mL (≈ 12 µM). Further, the MBC was 4 µg/mL (≈ 12.6 µM) against Bacillus thuringiensis and 2 µg/mL (≈ 6.28 µM) in the experiment on Bacillus subtilis.

Consider `Brc1ccc2[nH]cc(Sc3cc(Br)c(Br)c(Br)c3)c2c1` [Compound 174AH, 5-bromo-3-((3,4,5-tribromophenyl)thio)-1H-indole], for which the MIC in the experiment on Candida glabrata is greater than 50 µg/mL; in experiment [1], greater than 50 µg/mL; in the experiment on Bacillus thuringiensis, 8 µg/mL (≈ 14.8 µM); in the experiment with Bacillus subtilis (Bacillus subtilis), 8 µg/mL (≈ 14.8 µM). Further, the MBC against Bacillus thuringiensis and in the experiment with Bacillus subtilis was greater than 50 µg/mL throughout.

On to `Oc1ccc2[nH]cc(Sc3ccccc3Br)c2c1` [Compound 174AR, 3-((2-bromophenyl)thio)-1H-indol-5-ol], for which the MIC worked out at 4 µg/mL (≈ 12.5 µM) in experiment [2], 50 µg/mL (≈ 156 µM) with Candida glabrata and 8 µg/mL (≈ 25 µM) with Bacillus subtilis (Bacillus subtilis).

On to `Clc1ccccc1Sc1c[nH]c2ccc(Br)cc12` [Compound 174AJ, 5-bromo-3-((2-chlorophenyl)thio)-1H-indole], for which the minimal fungicidal concentration (MFC) (as a rule, the lowest tested concentration that kills the fungus rather than only halting it) in the experiment on Candida glabrata worked out at 25 µg/mL (≈ 73.8 µM). Further, the MIC is 6.25 µg/mL (≈ 18.5 µM) in the experiment with Candida glabrata, greater than 50 µg/mL in experiment [1], 0.78 µg/mL (≈ 2.3 µM) with Bacillus thuringiensis and 0.78 µg/mL (≈ 2.3 µM) in the experiment on Bacillus subtilis (Bacillus subtilis). Besides, the MBC with Bacillus thuringiensis was determined as 1.56 µg/mL (≈ 4.61 µM); against Bacillus subtilis, 3.13 µg/mL (≈ 9.24 µM).

Turning to `Clc1c(Cl)c(Cl)c(Sc2c[nH]c3ccc(Br)cc23)c(Cl)c1Cl` [Compound 174AD, 5-bromo-3-((perchlorophenyl)thio)-1H-indole], the results for the MIC (in experiment [1]; in the experiment with Bacillus thuringiensis; in the experiment with Bacillus subtilis) were greater than 50 µg/mL, 32 µg/mL (≈ 67.2 µM) and 16 µg/mL (≈ 33.6 µM), respectively. The MBC is greater than 50 µg/mL in the experiment on Bacillus thuringiensis and 50 µg/mL (≈ 105 µM) in the experiment with Bacillus subtilis.

For `COc1ccc2[nH]cc(Sc3ccccc3Br)c2c1` [Compound 174AS, 3-((2-bromophenyl)thio)-5-methoxy-1H-indole], the MIC was 1 µg/mL (≈ 2.99 µM) in experiment [2], greater than 50 µg/mL with Candida glabrata and 2 µg/mL (≈ 5.98 µM) with Bacillus subtilis (Bacillus subtilis).

`Clc1cc(Cl)c(Sc2c[nH]c3ccc(Br)cc23)c(Cl)c1` [Compound 174AG, 5-bromo-3-((2,4,6-trichlorophenyl)thio)-1H-indole]: in the experiment on Candida glabrata, the minimal fungicidal concentration (MFC) is greater than 50 µg/mL. Further, the MIC with Candida glabrata was 6.25 µg/mL (≈ 15.3 µM); in experiment [1] it was greater than 50 µg/mL; in the experiment with Bacillus thuringiensis, 4 µg/mL (≈ 9.81 µM); with Bacillus subtilis (Bacillus subtilis), 4 µg/mL (≈ 9.81 µM). Further, the MBC against Bacillus thuringiensis and against Bacillus subtilis was greater than 50 µg/mL throughout.

Consider `Brc1ccc(Sc2cnc3ccccn23)cc1` [Compound 174AN, 3-((4-bromophenyl)thio)imidazo[1,2-a]pyridine], for which the values for the MIC in the experiment on Candida glabrata and in the experiment on Bacillus subtilis (Bacillus subtilis) were 50 µg/mL (≈ 164 µM) and 16 µg/mL (≈ 52.4 µM), respectively.

As for `OCc1ccccc1Sc1c[nH]c2ccc(Br)cc12` [Compound 174AT, (2-((5-bromo-1H-indol-3-yl)thio)phenyl)methanol], the MIC worked out at 8 µg/mL (≈ 23.9 µM) in experiment [2], 50 µg/mL (≈ 150 µM) in the experiment on Candida glabrata, 8 µg/mL (≈ 23.9 µM) in the experiment with Bacillus thuringiensis and 8 µg/mL (≈ 23.9 µM) with Bacillus subtilis (Bacillus subtilis). Besides, the MBC against Bacillus thuringiensis and with Bacillus subtilis was 16 µg/mL (≈ 47.9 µM) in each case.

For `Oc1ccc2[nH]cc(Sc3ccccc3O)c2c1` [Compound 174AP, 3-((2-hydroxyphenyl)thio)-1H-indol-5-ol], the figures for the MIC (in experiment [2]; in the experiment with Candida glabrata; with Bacillus subtilis (Bacillus subtilis)) were 50 µg/mL (≈ 194 µM), greater than 50 µg/mL and 50 µg/mL (≈ 194 µM), respectively.

For the origin of these results see patent US11180452B2, “Methods and compositions for selectively inhibiting pathogenic microbes” (priority 2019, dated 2021).
